# How the values were obtained:
# [1] = tested on: MCF-7 (human breast cancer cell line); experiment: Cytotoxicity test by MTT assay, MCF-7; type: cell-based; conditions: for cytotoxicity at 30 µM / IC50: Homo sapiens, MCF7; for cytotoxicity at 30 µM: MCF-7, 30 μM, 48 h, read-out: Cell viability (% inhibition); for IC50: MCF-7, 48 h; for cytotoxicity compared with the reference drug sunitinib: MCF-7
# [2] = tested on: PANC-1 (human pancreatic cancer cell line); experiment: Cytotoxicity test by MTT assay, PANC-1; type: cell-based; conditions: for IC50 / cytotoxicity at 30 µM: Homo sapiens; for IC50: PANC-1, 48 h; for cytotoxicity at 30 µM: PANC-1, 30 μM, 48 h, read-out: Cell viability (% inhibition); for cytotoxicity compared with the reference drug sunitinib: PANC-1
# [3] = tested on: MDA-MB-231 (breast cancer); experiment: Cytotoxicity test by MTT assay, MDA-MB-231; type: cell-based, human; conditions: for IC50: Homo sapiens, MBA-MB-231, 48 h
# Procedure: (§1) A cytotoxicity test was measured by MTT assay. Each cell line was cultured in a 96-well plate at a density of 1×10^4 cells/well. After 24 hours, the culture medium containing 1% FBS (fetal bovine serum) was treated and reacted with compounds or solutions of compounds for 48 hours. MTT (3-(4,5-dimethylthiazol-2-yl)-2,5-diphenyltetrazolium bromide) solution (5 mg/mL) was added to each well and reacted for 4 hours in an incubator. […] After reacting in an incubator for 30 minutes, the formation of formazan was quantified using a microplate reader at an absorbance of 540 nm. […] The human cancer cell lines used herein are MCF-7 (breast cancer), MDA-MB-231 (breast cancer), HT-29 (colon cancer), DU145 (prostate cancer), U937 (myeloid leukemia), A549 (lung cancer), PANC-1 (pancreatic cancer) and MIA PaCa-2 (pancreatic cancer).
# HT-29 (colon cancer) = experiment: Cytotoxicity test by MTT assay, HT-29; type: cell-based, human; conditions: for IC50: Homo sapiens, HT-29, 48 h
# Procedure: as §1
# DU145 (prostate cancer) = experiment: Cytotoxicity test by MTT assay, DU145; type: cell-based, human; conditions: DU-145; for IC50: Homo sapiens, DU145, 48 h
# Procedure: as §1
# U937 (myeloid leukemia) = experiment: Cytotoxicity test by MTT assay, U937; type: cell-based, human; conditions: for IC50: Homo sapiens, U-937, U937, 48 h
# Procedure: as §1
# A549 (lung cancer) = experiment: Cytotoxicity test by MTT assay, A549; type: cell-based, human; conditions: for IC50: Homo sapiens, A549, 48 h
# Procedure: as §1
# [4] = tested on: MIA PaCa-2 (pancreatic cancer); experiment: Cytotoxicity test by MTT assay, MIA PaCa-2; type: cell-based, human; conditions: for IC50: Homo sapiens, MIA PaCa-2, 48 h; for cytotoxicity compared with the reference drug sunitinib: MIA PaCa-2
# Procedure: as §1
# [5] = Cytotoxicity test by MTT assay, HEK293 normal cell line; type: cell-based; conditions: human, HEK293 cells (normal cell line)
# Procedure: (§2) A cytotoxicity test was measured by MTT assay. Each cell line was cultured in a 96-well plate at a density of 1×10^4 cells/well. After 24 hours, the culture medium containing 1% FBS (fetal bovine serum) was treated and reacted with compounds or solutions of compounds for 48 hours. MTT (3-(4,5-dimethylthiazol-2-yl)-2,5-diphenyltetrazolium bromide) solution (5 mg/mL) was added to each well and reacted for 4 hours in an incubator. […] After reacting in an incubator for 30 minutes, the formation of formazan was quantified using a microplate reader at an absorbance of 540 nm.
# [6] = Cytotoxicity test by MTT assay, CHO-K1 normal cell line; type: cell-based; conditions: Chinese hamster, CHO-K1 cells (normal cell line)
# Procedure: as §2
SMILES,cytotoxicity at 30 µM [1] [%],IC50 [1] [µM],cytotoxicity compared with the reference drug sunitinib [1],IC50 [2] [µM],cytotoxicity at 30 µM [2] [%],cytotoxicity compared with the reference drug sunitinib [2],cytotoxicity compared with the reference drug sunitinib [3],IC50 [3] [µM],IC50 (HT-29 (colon cancer)) [µM],cytotoxicity compared with the reference drug sunitinib (DU145 (prostate cancer)),IC50 (DU145 (prostate cancer)) [µM],IC50 (U937 (myeloid leukemia)) [µM],IC50 (A549 (lung cancer)) [µM],IC50 [4] [µM],cytotoxicity compared with the reference drug sunitinib [4],IC50 at 48 h [5] [µM],IC50 at 48 h [6] [µM],cytotoxicity compared with the reference drug sunitinib (HT-29 (colon cancer); HT-29),cytotoxicity compared with the reference drug sunitinib (U937 (myeloid leukemia); U937),cytotoxicity compared with the reference drug sunitinib (A549 (lung cancer); A-549)
"CCN(CC)CCNC(=O)c1c(C)[nH]c(/C=C2\C(=O)Nc3nc(C)c(O)c(C)c32)c1C [Compound I-39, (Z)—N-(2-(Diethylamino)ethyl)-5-((5-hydroxy-4,6-dimethyl-2-oxo-1H-pyrrolo[2,3-b]pyridin-3(2H)-ylidene)methyl)-2,4-dimethyl-1H-pyrrole-3-carboxamide]",62.7,6.09,greater than or equal to that of the reference drug sunitinib,15.1,69.6,greater than or equal to that of the reference drug sunitinib,greater than or equal to that of the reference drug sunitinib,5.31,20.9,greater than or equal to that of the reference drug sunitinib,2.88,8.01,19.9,7.94,greater than or equal to that of the reference drug sunitinib,40.7,> 90,–,–,–
"Cc1nc2c(c(C)c1O)/C(=C/c1[nH]c(C)c(C(=O)NC3CCCCC3)c1C)C(=O)N2 [Compound I-41, (Z)—N-Cyclohexyl-5-((5-hydroxy-4,6-dimethyl-2-oxo-1H-pyrrolo[2,3-b]pyridin-3(2H)-ylidene)methyl)-2,4-dimethyl-1H-pyrrole-3-carboxamide]",78.1,6.9,greater than or equal to that of the reference drug sunitinib,5.88,78.3,greater than or equal to that of the reference drug sunitinib,greater than or equal to that of the reference drug sunitinib,3.52,4.47,greater than or equal to that of the reference drug sunitinib,< 1,3.21,6.08,5.01,greater than or equal to that of the reference drug sunitinib,37.1,43.4,greater than or equal to that of the reference drug sunitinib,greater than or equal to that of the reference drug sunitinib,greater than or equal to that of the reference drug sunitinib

# Reference: patent publication US10544140B2, “Pharmaceutical composition containing, as active ingredient, 7-azaindolin-2-one derivative or pharmaceutically acceptable salt thereof” (LG CHEM, LTD., priority 2015, dated 2020)
